Test results as given in ChEMBL document CHEMBL1157429, “Design of a fluorescence polarization assay platform for the study of human Hsp70” (Bioorg Med Chem Lett, 2008).
Calls of active or inactive are those of the source. The calls are words filed in the database; no cut-off is given here.

Experiments:
[1] = Binding affinity to Escherichia coli Hsp70 by fluorescence polarization assay
[2] = Binding affinity to human recombinant Hsp70 after 24 hrs by fluorescence polarization assay
Homo sapiens [3] = species on record: Homo sapiens; experiment: Decrease in binding affinity to human recombinant Hsp70 at 5 nM by fluorescence polarization assay in presence of ATP
[4] = molecular target: Heat shock protein HSP90 (Homo sapiens) (UniProt P07900+P08238); experiment: Binding affinity to human recombinant Hsp90 by fluorescence polarization assay; type: protein assay
Homo sapiens [5] = species on record: Homo sapiens; experiment: Binding affinity to human Hsp70 assessed as activation of single-turnover ATPase activity at 8 uM

`CC(C)C[C@H](NC(=O)[C@H](C)N)C(=O)N[C@@H](CC(C)C)C(=O)N[C@@H](CC(C)C)C(=O)N[C@@H](CO)C(=O)N[C@@H](C)C(=O)N1CCC[C@H]1C(=O)N[C@@H](CCCNC(=N)N)C(=O)N[C@@H](CCCNC(=N)N)C(=O)O` gave a Kd [1] of 400 nM.

For `CC(C)C[C@H](NC(=O)[C@H](C)NC(=O)CCCCCNC(=S)Nc1ccc(-c2c3ccc(=O)cc-3oc3cc(O)ccc23)c(C(=O)O)c1)C(=O)N[C@@H](CC(C)C)C(=O)N[C@@H](CC(C)C)C(=O)N[C@@H](CO)C(=O)N[C@@H](C)C(=O)N1CCC[C@H]1C(=O)N[C@@H](CCCNC(=N)N)C(=O)N[C@@H](CCCNC(=N)N)C(=O)O`, the Kd [2] was 426 nM, the Activity (Homo sapiens [3]) was “Active” and the Activity [4] was “inactive”. The Activity (Homo sapiens [5]) was “Dose-dependent effect”.
